Measured values from US20200085742A1, “NANOSCALE CARRIERS FOR THE DELIVERY OR CO-DELIVERY OF CHEMOTHERAPEUTICS, NUCLEIC ACIDS AND PHOTOSENSITIZERS” (The University of Chicago, priority 2013, published 2020).
Like-named read-outs stand apart in the source and are kept apart here.

Assays:
Assay type in all cases: cell-based, human
A2780 cells [1] = assay: In vitro cytotoxicity, MTS assay; details: after a 72 h incubation, read-out: Cisplatin IC50
Description: (§1) ES-2, OVCAR-3, SKOV-3, A2780, and A2780/CDDP cells were seeded at 5000 cells per well in 96-well plates and further cultured for 24 h. The culture media were replaced by 100 μL of fresh culture media containing 10% FBS. Cisplatin solution, NCP-1, NCP-1/siRNA containing pooled siRNAs, NCP-1/siRNA containing single siRNA, and Zn control/siRNA containing pooled siRNAs were added to the cells at different cisplatin or siRNA dose. Following incubation for 24 h, the cell viability was determined by (3-(4,5-dimethylthiazol-2-yl)-5-(3-carboxymethoxyphenyl)-2-(4-sulfophenyl)-2H-tetrazolium) (MTS) assay (Promega Corporation, Madison, Wis., United States of America) according to the manufacturer's instructions. […] The cytotoxicity of Zn control/siRNAs at the siRNA doses corresponding to cisplatin IC50 values was also evaluated.

A2780/CDDP cells = assay: In vitro cytotoxicity, MTS assay; details: after a 72 h incubation, read-out: Cisplatin IC50
Description: as §1

ES-2 cells = assay: In vitro cytotoxicity, MTS assay; details: after a 72 h incubation, read-out: Cisplatin IC50
Description: as §1

OVCAR-3 cells = assay: In vitro cytotoxicity, MTS assay; details: after a 72 h incubation, read-out: Cisplatin IC50
Description: as §1

SKOV-3 cells [2] = assay: In vitro cytotoxicity, MTS assay; details: after a 72 h incubation, read-out: Cisplatin IC50
Description: as §1

SKOV-3 cells [3] = assay: Cytotoxicity of UiO formulations, MTS assay; details: read-out: cisplatin IC50
Description: To examine whether the efficient and simultaneous knockdown of three MDR-relevant genes including survivin, Bcl-2, and P-gp could effectively reverse the cisplatin resistance in ovarian cancer cells, the cytotoxicity of free cisplatin, UiO-Cis, and siRNA/UiO-Cis was assessed by 3-(4,5-dimethylthiazol-2-yl)-5-(3-carboxymethoxy-phenyl)-2-(4-sulfophenyl)-2H-tetrazolium (MTS) assay.

[4] = tested on: cisplatin-resistant ovarian cancer cells; assay: DNA ladder and Annexin V conjugate staining (UiO)
Description: Annexin V conjugate staining provided further evidence to the apoptosis induced by siRNA/UiO-Cis. siRNA loaded in the NMOFs were efficiently internalized into the cytoplasm after a 24-h incubation to trigger MDR-relevant gene silencing.

SQ20B cells [5] = assay: Time-dependent cellular uptake (ICP-MS, fluorimetry); details: cisplatin dose 5 μM
Description: The cellular uptake of NCP-1 particles in SQ20B cells was quantified by ICP-MS. […] The cells were centrifuged at 3,000 rpm for 5 min and the cell pellet was digested with 500 μL of concentrated nitric acid. […] Results were expressed as the amount of cisplatin (ng) per 10^5 cells.

SQ20B cells [6] = assay: Efflux of cisplatin and pyrolipid; details: after 4-h uptake
Description: The efflux of cisplatin and pyrolipid in SQ20B cells was quantified as follows. SQ20B cells were seeded on 6-well plates at 5×10^5 cells/well and incubated for 24 h. […] After incubating for 4 h, the culture medium was discarded and the cells were washed with PBS three times. […] Results were expressed as the percent of the amount of cisplatin or pyrolipid being effluxed compared to the 4-h cellular uptake amount. In order to understand the cellular uptake dynamics of NCP-1-pyrolipid, the efflux of cisplatin and pyrolipid in different formulations was determined. […] The cisplatin or pyrolipid amounts detected in the culture medium were compared with the 4-h uptake amounts to give the percent efflux (Table 9).

HNSCC135 cells = assay: Cytotoxicity with or without irradiation, MTS assay; details: read-out: Cisplatin IC50
Description: (§2) The cells were seeded on 96-well plates at 2500 cells/well. […] After a 24-h incubation, the cells were irradiated with LED light (670 nm) at 60 mW/cm^2 for 15 min (equals to 54 J/cm^2). The cells without irradiation treatment served as controls. The cells were further incubated for 48 h. The cell viability was detected by (3-(4,5-dimethylthiazol-2-yl)-5-(3-carboxymethoxyphenyl)-2-(4-sulfophenyl)-2H-tetrazolium) (MTS) assay (Promega, Madison, Wis., United States of America) and the IC50 values were calculated accordingly. […] These findings were further supported by the flow cytometry results (Table 11).

JSQ3 cells = assay: as above; details: read-out: Cisplatin IC50
Description: as §2

SCC61 cells = assay: as above; details: read-out: Cisplatin IC50
Description: as §2

SQ20B cells [7] = assay: as above; details: read-out: Cisplatin IC50
Description: as §2

SQ20B cells [8] = assay: Flow cytometry, apoptosis and necrosis (Annexin V/PI)
Description: SQ20B cells were seeded at 1×10^6 cells per well in 6-well plates and further cultured for 24 h. […] Cells incubated with PBS served as control. After a 24 h […] incubation, the cells were irradiated with light emitting diode (LED) light (670 nm) at 60 mW/cm^2 for 15 min (equals to 54 J/cm^2). Following a further incubation of 48 h, the floating and adherent cells were collected and stained with Alexa Fluor 488 Annexin V/dead cell apoptosis kit with Alexa Fluor 488 annexin V and PI (Invitrogen, Carlsbad, Calif., United States of America) according to manufacturer's instructions. The apoptosis and necrosis was examined on a flow cytometer (LSRII Blue, Becton, Dickinson, and Company, Franklin Lakes, N.J., United States of America).

H460 cells [9] = assay: Cytotoxicity of Pten and Pten-NCP
A2780 cells [10] = assay: Cytotoxicity of cisplatin/GMP NCP, MTS assay
Description: (§3) The cytotoxicity of NCP particles carrying cisplatin, GMP, and thiol siRNAs targeting survivin, Bcl-2, and ERCC-1 were evaluated against human ovarian cancer cells A2780, A2780/CDDP, SKOV-3 and human non-small cell lung cancer cell H460 by MTS assay.

A2780R cells = assay: Cytotoxicity of cisplatin/GMP NCP, MTS assay
Description: as §3

SKOV-3 cells [11] = assay: Cytotoxicity of cisplatin/GMP NCP, MTS assay
H460 cells [12] = assay: Cytotoxicity of cisplatin/GMP NCP, MTS assay
[13] = read-out: IC50 as GMP concentration (numbers in parenthesis)

N.N.[Cl][Pt][Cl] [Free cisplatin, cisplatin]
IC50 (A2780 cells [1]): 4.4 ± 1 µM
IC50 (A2780/CDDP cells): 24 ± 3.1 µM
IC50 (ES-2 cells): 37.6 ± 1.9 µM
IC50 (OVCAR-3 cells): 44.4 ± 3.2 µM
IC50 (SKOV-3 cells [2]): 59.5 ± 1.2 µM
IC50 (SKOV-3 cells [3]): 48.5 ± 4.3 µM
DNA fragmentation (DNA ladder) [4]: No DNA fragmentation was detectable
Cisplatin uptake (SQ20B cells [5]; 1 h): 51.7 ± 4.5 ng/10^5 cells
Cisplatin uptake (SQ20B cells [5]; 2 h): 43.5 ± 1.4 ng/10^5 cells
Cisplatin uptake (SQ20B cells [5]; 4 h): 38.1 ± 0.8 ng/10^5 cells
Cisplatin uptake (SQ20B cells [5]; 24 h): 38.5 ± 1.3 ng/10^5 cells
Cisplatin efflux (SQ20B cells [6]; 1 h): 12.0 ± 1.5%
Cisplatin efflux (SQ20B cells [6]; 2 h): 13.5 ± 0.2%
Cisplatin efflux (SQ20B cells [6]; 4 h): 18.2 ± 5.1%
Cisplatin efflux (SQ20B cells [6]; 24 h): 20.0 ± 5.4%
Cisplatin efflux (SQ20B cells [6]; 24 h, listed as free cisplatin): 20.0%
IC50 (HNSCC135 cells; irradiation No): 3.37 ± 0.73 µM
IC50 (HNSCC135 cells; irradiation Yes (670 nm, 54 J/cm^2)): 2.65 ± 0.13 µM
IC50 (JSQ3 cells; irradiation No): 11.3 ± 1.2 µM
IC50 (JSQ3 cells; irradiation Yes): 13.3 ± 2.03 µM
IC50 (SCC61 cells; irradiation No): 3.46 ± 0.08 µM
IC50 (SCC61 cells; irradiation Yes): 3.69 ± 0.28 µM
IC50 (SQ20B cells [7]; irradiation No): 3.92 ± 0.15 µM
IC50 (SQ20B cells [7]; irradiation Yes): 4.18 ± 0.11 µM
Necrosis % (SQ20B cells [8]; w/irradiation): 0.2%
Apoptosis % (SQ20B cells [8]; w/irradiation, cisplatin 5 μM or equivalent pyrolipid): 38.1%
Apoptosis % (SQ20B cells [8]; w/o irradiation): 37.9%
Necrosis % (SQ20B cells [8]; w/o irradiation): 0.2%
IC50 (H460 cells [9]): 4.8 µM
IC50 (A2780 cells [10]): 0.764 ± 0.183 µM
IC50 (A2780R cells; read-out: Cisplatin IC50): 13.6 ± 3.2 µM
IC50 (SKOV-3 cells [11]; read-out: Cisplatin IC50): 4.6 ± 0.7 µM
IC50 (H460 cells [12]; read-out: Cisplatin IC50): 4.6 ± 0.6 µM

gemcitabine monophosphate [GMP]
IC50 (A2780R cells; [13]): 0.12 µM
IC50 (SKOV-3 cells [11]; [13]): 2.8 µM
IC50 (H460 cells [12]; [13]): 3.3 µM
